Read-outs that look alike come from different tables or passages of the source.
Assays:
human IDO1 = target: T1, human IDO1 (Homo sapiens, UniProt P14902); assay: human IDO1 biochemical assay (NFK GreenScreen); settings: human IDO1 biochemical assay
T1 construct: Full-length recombinant human and mouse IDO1 were expressed in Escherichia coli with a hexahistidine tag at the N-terminus; hexahistidine (N); made in house; host or cells: Escherichia coli

HEK-hIDO1 = HEK-hIDO1 (Homo sapiens, UniProt P14902); assay: cell-based assay, Trp-catabolizing activity in HEK-hIDO1 cells
Sequence of HEK-hIDO1 (P14902 whole entry): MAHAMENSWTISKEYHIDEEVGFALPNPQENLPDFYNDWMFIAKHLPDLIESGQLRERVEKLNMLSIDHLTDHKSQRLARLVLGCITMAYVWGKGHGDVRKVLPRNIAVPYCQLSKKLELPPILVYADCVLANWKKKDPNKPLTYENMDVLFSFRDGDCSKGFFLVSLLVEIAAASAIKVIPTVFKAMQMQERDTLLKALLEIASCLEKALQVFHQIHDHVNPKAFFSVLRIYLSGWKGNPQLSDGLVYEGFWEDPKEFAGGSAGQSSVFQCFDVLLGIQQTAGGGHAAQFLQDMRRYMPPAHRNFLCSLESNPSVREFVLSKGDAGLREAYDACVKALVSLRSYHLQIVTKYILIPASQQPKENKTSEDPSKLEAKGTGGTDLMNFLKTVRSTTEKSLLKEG

[1] = in vivo pharmacokinetics, monkey; settings: cynomolgus monkey, plasma; for clearance / Vd: intravenous; for Vd: read-out: Vss
Method: Pharmacokinetic properties of NTRC 3883-0 were determined in plasma following single oral (p.o.) and i.v. administration to male CD-1 mice (n = 6 per treatment group with three mice sampled per time point), Wistar rats (n = 3), cynomolgus monkey (n = 1) and Beagle dogs (n = 3). Formulations were prepared in DMSO, Kolliphor® EL, 5% D-mannitol in Elix water at a volume ratio of 1:1:8 for i.v. administration, and in 0.5% gelatin, 5% D-mannitol in Elix water for p.o. administration. Plasma samples were collected at eight to eleven time points up to 24 h after administration. Pharmacokinetic properties and required dosing in humans were predicted by allometric scaling by Karin Jorga Life Science Consulting (Basel, Switzerland) ( Figure S2 and Table S2 ).

A375 + IFNγ (hIDO1) = target: T2, A375 + IFNγ (hIDO1) (Homo sapiens, UniProt P14902); assay: cell-based assay, Trp-catabolizing activity in IFNγ-stimulated A375 cells; settings: IFNγ-stimulated A375 human melanoma cells
T2 construct: host or cells: A375 cells stimulated with IFNγ
T2 sequence (P14902 whole entry): as above

[2] = plasma protein binding, human; assay type: in vitro ADME; settings: column Human (predicted)
Method: Supplement DataSheet_1.docx, table 2: Table S2. Pharmacokinetic parameters of NTRC 3883-0 observed in mouse, rat, monkey and dog, and predicted for humans using allometric scaling. Data in bold are measured, while data in italics are calculated or predicted (for humans). The clearance (Cl) and volume of distribution at steady state (Vss | column: Human (predicted)

mTDO = target: T3, mTDO (Mus musculus, UniProt P48776); assay: mouse TDO biochemical assay (NFK GreenScreen); settings: biochemical; @ 31,600 nM
T3 construct: hexahistidine (C); made in house; host or cells: Escherichia coli
T3 sequence (P48776 whole entry): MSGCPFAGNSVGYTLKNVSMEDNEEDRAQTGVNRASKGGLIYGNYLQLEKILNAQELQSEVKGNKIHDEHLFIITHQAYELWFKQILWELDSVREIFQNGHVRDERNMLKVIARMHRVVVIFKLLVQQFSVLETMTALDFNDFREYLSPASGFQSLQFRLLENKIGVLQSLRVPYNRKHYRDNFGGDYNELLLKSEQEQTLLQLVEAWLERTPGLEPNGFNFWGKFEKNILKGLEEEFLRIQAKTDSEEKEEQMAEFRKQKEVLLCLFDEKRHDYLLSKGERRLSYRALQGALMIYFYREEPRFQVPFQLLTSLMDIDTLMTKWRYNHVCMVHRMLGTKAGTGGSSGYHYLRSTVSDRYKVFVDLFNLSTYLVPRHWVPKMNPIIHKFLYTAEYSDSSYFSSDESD
Method: (§1) Full-length recombinant human and mouse IDO1 were expressed in Escherichia coli with a hexahistidine tag at the N-terminus, and purified by affinity chromatography to > 95% purity, as described ([8]). Human and mouse TDO containing a C-terminal hexahistidine tag were analogously expressed and purified to > 95% purity ([8]). The inhibitory activity of compounds was determined with the NFK GreenScreen assay technology under the conditions as described ([8]), except for the reaction buffer for IDO1, which was replaced by 50 mM NaH2PO4, pH 7.0, supplemented with 0.01% Tween-20 and 1% glycerol. Inhibition of the CYP3A4 and CYP2D6 enzymes was determined with the P450-Glo™ Screening System with Luciferin-IPA (Promega, #V9920 and V9890). For determination of IC50 values, the effect of inhibitors was determined in 10-point duplicate dose-response curves. Graphs were fitted to a four-parameter logistics equation in XLfit (ID Business Solutions, Ltd., Guildford, UK) from which IC50 values were calculated.

CYP3A4 = target: T4, CYP3A4 (Homo sapiens, UniProt P08684); assay: CYP3A4 inhibition (P450-Glo); assay type: in vitro ADME; settings: 10 µM
T4 construct: purchased Promega V9920
T4 sequence (P08684 whole entry): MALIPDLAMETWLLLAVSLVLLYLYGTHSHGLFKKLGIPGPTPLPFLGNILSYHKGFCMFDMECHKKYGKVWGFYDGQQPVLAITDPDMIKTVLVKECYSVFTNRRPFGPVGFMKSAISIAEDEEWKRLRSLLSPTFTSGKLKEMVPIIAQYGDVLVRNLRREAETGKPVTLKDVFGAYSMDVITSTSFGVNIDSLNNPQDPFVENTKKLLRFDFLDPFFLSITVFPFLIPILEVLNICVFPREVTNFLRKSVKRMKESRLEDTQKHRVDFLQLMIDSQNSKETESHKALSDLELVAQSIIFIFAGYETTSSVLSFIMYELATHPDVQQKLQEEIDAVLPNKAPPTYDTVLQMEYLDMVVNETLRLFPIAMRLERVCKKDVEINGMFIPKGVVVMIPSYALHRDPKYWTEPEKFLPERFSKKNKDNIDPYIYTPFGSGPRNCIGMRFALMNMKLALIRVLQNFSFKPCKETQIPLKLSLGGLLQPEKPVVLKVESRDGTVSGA
Method: as §1

[3] = system: B16F10-mIDO1 subline j19 in female B6D2F1 mice; assay: B16F10-mIDO1 syngeneic mouse model, intervention study; assay type: in vivo
Description: For development of the mIDO1-overexpressing B16F10 mouse model, performed at Charles River Laboratories, female B6D2F1 mice were implanted subcutaneously with 1 × 10^6 parental B16F10 cells or B16F10-mIDO1 cells (subline i6 or j19) on day 0 with n = 10 mice per group. A tumor volume of 2000 mm^3 was used as the endpoint of the experiment for the individual animals. To determine the optimal inoculation cell concentration, mice were implanted with 3 × 10^5, 1 × 10^5 or 3 × 10^4 parental or mIDO1-overexpressing B16F10 cells (subline j19) with n = 5 mice per group. The same endpoint of the experiment was used as described above. […] For the intervention study, 3 x 10^5 cells of the B16F10-mIDO1 subline j19 were implanted on day 0, and treatment was started on day 3 with vehicle (DMSO, Kolliphor, 5% mannitol; […]. Four animals were excluded from analysis due to non-treatment-related deaths. Tumors and plasma were sampled 2 h post last dose.
[…]. After centrifugation, proteins were removed from the homogenized tissue supernatants and plasma samples by precipitation with methanol. The concentrations of inhibitor, Trp and Kyn were determined by LC-MS/MS.

[4] = system: CD8-positive T cells co-cultured with HEK-hIDO1 cells; assay: co-culture assay of HEK-hIDO1 cells with PBMCs, CFSE proliferation; assay type: cell-based, human; settings: 7.5 µM Trp; 10 µM NTRC 3883-0, 1 µM epacadostat; 5 days
GL-261-mTDO = GL-261-mTDO (Mus musculus, UniProt P48776); assay: cell-based assay, Trp-catabolizing activity in GL-261-mTDO cells; settings: read-out: inhibition GL-261-mTDO
Sequence of GL-261-mTDO (P48776 whole entry): as the sequence (P48776 whole entry) above

HEK-hTDO = HEK-hTDO (Homo sapiens, UniProt P48775); assay: cell-based assay, Trp-catabolizing activity in HEK-hTDO cells
Sequence of HEK-hTDO (P48775 whole entry): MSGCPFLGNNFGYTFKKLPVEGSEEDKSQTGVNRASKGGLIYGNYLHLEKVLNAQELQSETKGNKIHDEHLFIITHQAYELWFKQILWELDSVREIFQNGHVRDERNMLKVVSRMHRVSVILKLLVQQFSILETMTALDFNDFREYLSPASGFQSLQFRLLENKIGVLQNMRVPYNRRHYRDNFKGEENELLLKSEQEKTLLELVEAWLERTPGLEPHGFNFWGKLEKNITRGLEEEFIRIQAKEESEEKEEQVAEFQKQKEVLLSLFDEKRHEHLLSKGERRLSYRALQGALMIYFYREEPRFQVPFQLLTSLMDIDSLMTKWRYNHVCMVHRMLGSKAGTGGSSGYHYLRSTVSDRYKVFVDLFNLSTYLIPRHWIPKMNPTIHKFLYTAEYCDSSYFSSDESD

[5] = plasma protein binding, rat; assay type: in vitro ADME
Method: Supplement DataSheet_1.docx, table 2: Table S2. Pharmacokinetic parameters of NTRC 3883-0 observed in mouse, rat, monkey and dog, and predicted for humans using allometric scaling. Data in bold are measured, while data in italics are calculated or predicted (for humans). The clearance (Cl) and volume of distribution at steady state (Vss | column: Rat

[6] = plasma protein binding, dog; assay type: in vitro ADME
Method: Supplement DataSheet_1.docx, table 2: Table S2. Pharmacokinetic parameters of NTRC 3883-0 observed in mouse, rat, monkey and dog, and predicted for humans using allometric scaling. Data in bold are measured, while data in italics are calculated or predicted (for humans). The clearance (Cl) and volume of distribution at steady state (Vss | column: Dog

mIDO1 = target: T5, mIDO1 (Mus musculus, UniProt P28776); assay: mouse IDO1 biochemical assay (NFK GreenScreen)
T5 construct: Full-length recombinant human and mouse IDO1 were expressed in Escherichia coli with a hexahistidine tag at the N-terminus; hexahistidine (N); made in house; host or cells: Escherichia coli
T5 sequence (P28776 whole entry): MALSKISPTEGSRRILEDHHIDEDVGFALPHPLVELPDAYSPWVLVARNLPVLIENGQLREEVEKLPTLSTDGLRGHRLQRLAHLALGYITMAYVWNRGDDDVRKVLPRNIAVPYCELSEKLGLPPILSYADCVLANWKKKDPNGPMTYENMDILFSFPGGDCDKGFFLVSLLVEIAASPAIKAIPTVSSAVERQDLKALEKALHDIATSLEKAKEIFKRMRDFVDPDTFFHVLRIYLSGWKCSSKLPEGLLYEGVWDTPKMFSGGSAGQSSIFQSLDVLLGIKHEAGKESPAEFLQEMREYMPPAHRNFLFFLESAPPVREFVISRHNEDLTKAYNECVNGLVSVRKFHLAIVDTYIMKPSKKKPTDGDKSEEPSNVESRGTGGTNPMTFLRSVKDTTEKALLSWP

[7] = system: panel of 44 pharmacologically relevant receptors, ion channels, transporters and enzymes; assay: Eurofins-CEREP selectivity panel; settings: 10 µM
[8] = 100 mg/kg p.o. b.i.d. from day 3
[9] = 100 mg/kg p.o. b.i.d., 2 h post last dose

T1 sequence (P14902 whole entry): as the sequence (P14902 whole entry) above

O=C1CN(C(=O)c2c(F)cccc2F)[C@H](c2cccc(Br)c2)N1O [NTRC 3883-0]
IC50 (human IDO1): 123 nM
IC50 (HEK-hIDO1): 119 nM
half-life [1]: 2.4 h
clearance [1]: 37 mL/min/kg
clearance ([1]; monkey, body weight 3.0 kg): 111 mL/min
Vd ([1]; monkey, body weight 3.0 kg): 6.74 L
Vd [1]: 2.25 L/kg
bioavailability ([1]; po, monkey, p.o. versus i.v., read-out: Bioavailability (F)): 49%
IC50 (A375 + IFNγ (hIDO1)): 182 nM
fraction unbound [2]: 0.26
inhibition at 31.6 µM (mTDO): < 20%
inhibition of CYP3A4 activity (CYP3A4): did not inhibit
times lower intratumoral levels of Kyn compared to epacadostat ([3]; 100 mg/kg p.o. b.i.d.): 3.6 times
tumor growth corrected for the variation in time until tumor establishment [3, 8]: delay in tumor growth
tumor growth in comparison to vehicle-treated animals [3, 8]: no effect
times lower inhibitor level in plasma compared to epacadostat [3, 9]: 1.8 times
times lower inhibitor level in the tumors compared to epacadostat [3, 9]: 2.2 times
intratumoral Trp levels ([3]; 100 mg/kg p.o. b.i.d., LC-MS/MS): slightly more efficient in increasing Trp
effect on IDO1-mediated inhibition of T cell proliferation (in words) [4]: relieved the inhibitory effect
inhibition at 31.6 µM (GL-261-mTDO): < 20%
effect on Trp-catabolizing activity in HEK-hTDO cells (in words) (HEK-hTDO): no effect
inhibition at 31.6 µM (HEK-hTDO; read-out: inhibition HEK-hTDO): < 20%
fraction unbound [5]: 0.15
fraction unbound [6]: 0.21
IC50 (mIDO1): 93 nM
cross-reactivities in panel of 44 targets [7]: no cross-reactivities

From paper PMC7876453, “Targeting Indoleamine 2,3-Dioxygenase in Cancer Models Using the Novel Small Molecule Inhibitor NTRC 3883-0” (Frontiers in Immunology, 2021)
